Here are results for ten compounds from PubChem BioAssay (NCI).

Among the test systems are DLD-1 colon; DMS 114 small cell lung; DMS 273 small cell lung; HCT-116 colon; HCT-15 colon; HT29 colon; KM20L2 colon; LXFL 529 NSCLC; M19-MEL melanoma; MALME-3M melanoma; OVCAR-4 ovarian; SK-MEL-28 melanoma; SNB-75 CNS; XF 498 CNS; HOP-18 NSCLC; RXF 393 renal; SNB-78 CNS; MDA-MB-435.
Holding throughout (experiment): DTP human tumour cell line panel, 48 h

Each structure is given as a SMILES string.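 Each compound was tested at five concentrations against cells in 96-well plates for 48 hours. TGI: total growth inhibition.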

What is called TGI is the concentration at which net growth stops. Low values mean more potent growth arrest, high ones less potent growth arrest.

On to `O=C(c1ccccc1)c1c(CC(O)c2ccccn2)n(C(=O)c2ccccc2)c2ccccc12` (stereo unspecified), for which the TGI in the experiment on DLD-1 colon was greater than 100 µM; with DMS 114 small cell lung, 71.9 µM; with DMS 273 small cell lung, 58.3 µM; in the experiment on HCT-116 colon, 27.8 µM; with HCT-15 colon, 88.1 µM; in the experiment on HT29 colon, 30.1 µM. Moreover, the TGI is 33.5 µM in the experiment on KM20L2 colon; greater than 100 µM in the experiment on LXFL 529 NSCLC; 40.1 µM in the experiment with M19-MEL melanoma; 46 µM in the experiment with MALME-3M melanoma; greater than 100 µM in the experiment with OVCAR-4 ovarian; 39.6 µM in the experiment on SK-MEL-28 melanoma. Besides, the figures for the total growth inhibition concentration (TGI) with SNB-75 CNS and with XF 498 CNS were 43.3 µM and 46 µM, respectively.

For the compound `COc1ccc(C2=C(Cl)c3cc(OC)c(OC)cc3C2OC)cc1OC` (stereo unspecified), the TGI with DLD-1 colon was 41.8 µM; in the experiment with DMS 114 small cell lung, greater than 100 µM; in the experiment on DMS 273 small cell lung, greater than 100 µM; in the experiment with HCT-116 colon, greater than 100 µM; in the experiment with HCT-15 colon it was greater than 100 µM; in the experiment on HOP-18 NSCLC, greater than 100 µM. Moreover, the TGI with HT29 colon, with KM20L2 colon, in the experiment on LXFL 529 NSCLC, with M19-MEL melanoma, with MALME-3M melanoma and in the experiment with OVCAR-4 ovarian was greater than 100 µM each time. Also, the TGI with RXF 393 renal, with SK-MEL-28 melanoma, in the experiment with SNB-75 CNS, in the experiment with SNB-78 CNS and with XF 498 CNS was greater than 100 µM in each case.

Turning to `CCN(CC)C(=O)Cc1c(C(=O)N(CC)CC)c(=O)nc2sccn12`, the TGI with DLD-1 colon, in the experiment with DMS 114 small cell lung, in the experiment with DMS 273 small cell lung, in the experiment with HCT-116 colon, with HCT-15 colon and in the experiment with HOP-18 NSCLC was greater than 100 µM in each case. For the same compound, the TGI in the experiment on HT29 colon, with KM20L2 colon, with LXFL 529 NSCLC, in the experiment with M19-MEL melanoma, in the experiment on MALME-3M melanoma and with OVCAR-4 ovarian was greater than 100 µM throughout. The TGI in the experiment on RXF 393 renal, in the experiment with SK-MEL-28 melanoma, with SNB-75 CNS and in the experiment on XF 498 CNS was greater than 100 µM each time.

For `CCN(CC)c1cccc2c1/C(=N/O)CCCC2`, the TGI in the experiment on DMS 114 small cell lung, in the experiment with DMS 273 small cell lung, in the experiment on HCT-116 colon, with HCT-15 colon, in the experiment on HOP-18 NSCLC and in the experiment with HT29 colon was greater than 100 µM each time. Moreover, the TGI in the experiment on KM20L2 colon, in the experiment on LXFL 529 NSCLC, in the experiment on M19-MEL melanoma, with MALME-3M melanoma, in the experiment on OVCAR-4 ovarian and in the experiment on RXF 393 renal was greater than 100 µM throughout. The TGI in the experiment with SK-MEL-28 melanoma, in the experiment on SNB-75 CNS, in the experiment on SNB-78 CNS and in the experiment on XF 498 CNS was greater than 100 µM in each case.

For `O=c1[nH]c(=O)n(COCc2ccccc2)c2ccsc12`, the TGI in the experiment on HCT-116 colon, with HCT-15 colon, with HT29 colon, with MALME-3M melanoma, with MDA-MB-435 and with OVCAR-4 ovarian was greater than 100 µM in each case. In addition, the TGI in the experiment with RXF 393 renal, in the experiment on SK-MEL-28 melanoma and with SNB-75 CNS was greater than 100 µM throughout.

Regarding `CC(C)OP(=O)(OC(C)C)/C(Cl)=N/Nc1ccc([N+](=O)[O-])cc1`, the TGI in the experiment on DLD-1 colon, in the experiment with DMS 114 small cell lung, with DMS 273 small cell lung, with HCT-116 colon, in the experiment with HCT-15 colon and in the experiment on KM20L2 colon was greater than 100 µM throughout. In addition, the TGI in the experiment with LXFL 529 NSCLC, in the experiment with M19-MEL melanoma, with MALME-3M melanoma, in the experiment with OVCAR-4 ovarian, in the experiment with SK-MEL-28 melanoma and in the experiment with SNB-75 CNS was greater than 100 µM each time. Besides, the TGI with SNB-78 CNS and in the experiment with XF 498 CNS was greater than 100 µM in each case.

For the compound `COC(=O)C1CCC(=O)N1CN(C(C)=O)c1ccccc1Cl` (stereo unspecified), the TGI with HCT-116 colon, in the experiment with HCT-15 colon, in the experiment with HT29 colon, with MALME-3M melanoma, in the experiment with MDA-MB-435 and with OVCAR-4 ovarian was greater than 100 µM each time. Further, the TGI in the experiment on RXF 393 renal, in the experiment on SK-MEL-28 melanoma and in the experiment with SNB-75 CNS was greater than 100 µM throughout.

In the case of `COP(=O)(OC)C(=O)N1N(c2ccc([N+](=O)[O-])cc2)C(=O)C(C)NC1(NNc1ccc([N+](=O)[O-])cc1)P(=O)(OC)OC` (stereo unspecified), the TGI in the experiment on DLD-1 colon, in the experiment with DMS 114 small cell lung, with DMS 273 small cell lung, in the experiment on HCT-116 colon, in the experiment on HCT-15 colon and with KM20L2 colon was greater than 100 µM each time. Moreover, the total growth inhibition concentration (TGI) in the experiment with LXFL 529 NSCLC, with M19-MEL melanoma, in the experiment on MALME-3M melanoma, in the experiment with OVCAR-4 ovarian, with SK-MEL-28 melanoma and in the experiment with SNB-75 CNS was greater than 100 µM throughout. Also, the concentration for total growth inhibition (TGI) with XF 498 CNS is greater than 100 µM.

In the case of `Oc1ccc(O)c(CNc2ccc(C(O)C(F)(F)F)cc2)c1` (stereo unspecified), the TGI is 32.2 µM in the experiment on HCT-116 colon; 30.7 µM in the experiment with HCT-15 colon; greater than 100 µM in the experiment with HT29 colon; 31 µM with MALME-3M melanoma; 47.4 µM in the experiment on MDA-MB-435; 30.3 µM with OVCAR-4 ovarian. Further, the TGI is 26.7 µM with RXF 393 renal, 77.3 µM with SK-MEL-28 melanoma and greater than 100 µM in the experiment with SNB-75 CNS.

Turning to `C=C1C(=O)O[C@H]2C/C(C)=C/CC[C@@]3(C)O[C@](C)(CC[C@@H]3I)[C@@H](I)C[C@@H]12`, the total growth inhibition concentration (TGI) in the experiment with HCT-116 colon was 9.51 µM; in the experiment on HCT-15 colon, 12.2 µM; with HT29 colon, 14.9 µM; with MALME-3M melanoma it was 14.7 µM; in the experiment on MDA-MB-435, 11.7 µM; with OVCAR-4 ovarian it was 14.3 µM. The values for the total growth inhibition concentration (TGI) in the experiment with RXF 393 renal, in the experiment on SK-MEL-28 melanoma and in the experiment on SNB-75 CNS were 12.7 µM, 14.1 µM and 12.4 µM, respectively.
